Measured values as given in patent US8906913B2, “Azabicyclohexanes” (Panacea Biotec Limited, priority 2009, dated 2014).
In brackets after ≈: the same amount, converted by molar mass. Marks after values point to notes of the source that are not given here.

Columns and labels:
male SWISS albino mice = experiment: Forced Swim Test; format: in vivo; conditions: mice; for % decrease in immobility time (dose 64 mg/kg) / inhibition in vivo at 32 mg/kg: Table 8, oral; for CNS Activity (in vivo FST) % decrease in immobility time / CNS Activity (in vivo FST) % decrease in immobility time (dose 32 mg/kg): Table 9; for CNS Activity (in vivo FST) % decrease in immobility time: footnote *: dose 64 mg/kg/p.o; for inhibition in vivo at 32 mg/kg: Mus musculus, 0.25 h, read-out: % decrease in immobility time (dose 32 mg/kg)
Experimental: This test was conducted according to the method of Porsolt et al. (Porsolt, R. D., et al., Behavioural despair in mice: A primary screening test for antidepressants. Arch. in Pharmacodyn. Ther., 229, pp 327-336 (1977)).
A test compound was suspended in deionized water, unless otherwise specified, and this suspension was orally administered to male SWISS albino mice (7 to 9 week old). 15 min later, the mice were placed in a water tank having a water depth of 15 cm and a water temperature of 25±1° C. and immediately thereafter allowed to swim for 6 min. Then, a time during which the mouse was immobile (immobility time) was measured for the last 4 min.

[1] = system: Enterococcus faecalis ATCC 29212 Vancomycin Sensitive; experiment: In-vitro antibacterial activity, broth microdilution MIC; format: cell-based; conditions: ATCC29212, Table 9, E. faecalis, read-out: Antimicrobial activity (in vitro MIC) ATCC 29212
Experimental: (§1) The in-vitro antibacterial activity of the compounds of the present invention (as described in Table 7) was determined by a broth microdilution following the guidelines prescribed by the Clinical and Laboratory Standards Institute (CLSI). This method is described in the CLSI Document M7-A7, Vol. 26, No. 2, “Methods for Dilution Antimicrobial Susceptibility Test for Bacteria that Grow Aerobically; Approved Standard-Seventh Edition”, which is incorporated herein by reference. Minimum Inhibitory Concentration (MIC) is defined as the minimum concentration of test compound which inhibits the growth of bacteria as visible or seen by the naked eye. This test can also be carried out by agar dilution method.
(§2) The compounds of the present invention were tested against a panel of standard microorganisms obtained from ATCC (American type culture collection). Linezolid was used as comparator in all the tests.
(§3) In the broth microdilution method, the compound was dissolved in dimethylsulfoxide and two fold serial dilutions were carried out in 96 well microtitre plates. The inoculum was prepared by adjusting the turbidity of actively growing broth culture and added to the wells to obtain a final bacterial count of ˜2-5×10^4 CFU/well. The microtitre plates were incubated at 35±2° C. for 16-20 h and then read visually.

[2] = system: Enterococcus faecium ATCC 700221 VRE (Vancomycin resistant E. faecium); experiment: as above; format: cell-based; conditions: Table 9, read-out: Antimicrobial activity (in vitro MIC) ATCC 700221
Experimental: as §1, §2, §3

[3] = system: Staphylococcus aureus ATCC 29213 MSSA (Methicillin sensitive); experiment: as above; format: cell-based; conditions: Table 9, S. aureus MSSA, read-out: Antimicrobial activity (in vitro MIC) ATCC 29213
Experimental: as §1, §2, §3

[4] = system: Staphylococcus aureus ATCC 33591 MRSA (Methicillin resistant); experiment: as above; format: cell-based; conditions: Table 9, S. aureus MRSA, read-out: Antimicrobial activity (in vitro MIC) ATCC 33591
Experimental: as §1, §2, §3

[5] = suspended in deionized water, 15 min before test

SMILES	MIC [1]	MIC [2]	MIC [3]	MIC [4]	CNS Activity (in vivo FST) % decrease in immobility time (dose 32 mg/kg) (male SWISS albino mice)	also measured
COCCN1CC2CC2(c2ccc(N3CCOCC3)cc2)C1 (stereo not drawn)	–	–	–	–	–	% decrease in immobility time (dose 64 mg/kg) (male SWISS albino mice; [5]): 62.4 ± 16.3%
COCC1C2CNCC21c1ccc(N2CCOCC2)cc1 (stereo not drawn)	–	–	–	–	–	% decrease in immobility time (dose 64 mg/kg) (male SWISS albino mice; vehicle 0.25% CMC): 60.8 ± 20.9^z %
CCN1CC2CC2(c2ccc(N3CCOCC3=O)cc2)C1.Cl (stereo not drawn)	–	–	–	–	–	% decrease in immobility time (dose 64 mg/kg) (male SWISS albino mice; [5]): 88.7 ± 5.2%
CCN1CC2CC2(c2ccc(N3CCOCC3)cc2)C1 (stereo not drawn)	> 32 µg/mL	> 32 µg/mL	> 32 µg/mL	> 32 µg/mL	–	CNS Activity (in vivo FST) % decrease in immobility time (male SWISS albino mice): 81.0 ± 7.1* %
CCN1CC2CC2(c2ccc(N3CCOC3=O)cc2)C1.Cl (stereo not drawn)	> 32 µg/mL	> 32 µg/mL	> 32 µg/mL	> 32 µg/mL	99.2 ± 0.8%	–
c1cc(C23CNCC2C3)ccc1N1CCOCC1 (stereo not drawn) [drawing 510]	–	–	–	–	–	% decrease in immobility time (dose 64 mg/kg) (male SWISS albino mice; [5]): 37.6 ± 14.5%
CCN1CC2CC2(c2ccc(N3CCCC3)cc2)C1 (stereo not drawn) [drawing 519]	–	–	–	–	–	inhibition in vivo at 32 mg/kg (male SWISS albino mice; [5]): 99.9 ± 0.1%
CCN1CC2C(COC)C2(c2ccc(N3CCCC3)cc2)C1 (stereo not drawn) [drawing 531]	–	–	–	–	–	inhibition in vivo at 32 mg/kg (male SWISS albino mice; [5]): 97.2 ± 1.2%
CC(=O)N1CC2CC2(c2ccc(N3C[C@H](CO)OC3=O)cc2)C1 (stereo partly drawn) [drawing 534]	4 µg/mL (≈ 12.6 µM)	4 µg/mL (≈ 12.6 µM)	4 µg/mL (≈ 12.6 µM)	2 µg/mL (≈ 6.32 µM)	5.1 ± 1.4%	–
CCN1CC2CC2(c2ccc(N3CCCC3)cc2)C1 (stereo not drawn) [drawing 535]	> 32 µg/mL	> 32 µg/mL	> 32 µg/mL	> 32 µg/mL	99.9 ± 0.1%	–
c1cc(C23CNCC2C3)ccc1N1CCOCC1 (stereo not drawn) [drawing 537]	> 32 µg/mL	> 32 µg/mL	> 32 µg/mL	> 32 µg/mL	–	CNS Activity (in vivo FST) % decrease in immobility time (male SWISS albino mice): 84.8* %
CCN1CC2C(COC)C2(c2ccc(N3CCCC3)cc2)C1 (stereo not drawn) [drawing 538]	> 32 µg/mL	> 32 µg/mL	> 32 µg/mL	> 32 µg/mL	97.2 ± 1.2%	–
